Results taken from patent publication US6562756B1, “Herbicidal compositions” (Nissan Chemical Industries, Ltd., priority 1999, dated 2003).

Columns and labels:
Assay type in all cases: in vivo
maize = test: Test on phytotoxicity to maize sown at a shallow sowing depth (soil treatment, pot test); conditions: for Fresh weight ratio with respect to untreated plants: maize sown at 1 cm depth, 17 days after application; for phytotoxicities to maize sown at a shallow sowing depth caused by Compound (A1), (A2), (A3) or (A4): effect of the safener: summary in words of Table 1
Description: Cylindrical pots having an inner diameter of about 11 cm and a depth of 10 cm were charged with sterilized upland soil. In each pot, three seeds of maize were separately seeded at a sowing depth of 1 cm. On the day of seeding, wettable powder appropriately formulated according to the above Formulation Examples was diluted with water and then applied with a small type sprayer at a spray volume of 10 liter/are. Seventeen days after the application, the fresh weight of aerial parts of each plant was determined and then compared with those of untreated plants.

[1] = system: velvetleaf (Abutilon theophrasti); test: Test on herbicidal effects by soil treatment: velvetleaf; conditions: four weeks after application
Description: (§1) Plastic cases having a size of 30 cm (length), 30 cm (width) and 10 cm (depth) were charged with sterilized upland soil. In each plastic case, seeds of velvetleaf (Abutilon theophrasti), common lambsquarters (Chenopodium album), redroot pigweed (Amaranthus viridis) and common ragweed (Ambrosia artemisiaefolia) were seeded, and covered with soil of 0.5 cm thickness. On the day of seeding, wettable powder appropriately formulated according to the above Formulation Examples was diluted with water and then applied with a small type sprayer at a spray volume of 10 liter/are. Four weeks after the application, the fresh weight of aerial parts of each weed was determined and then compared with those of untreated weed.

[2] = system: common lambsquarters (Chenopodium album); test: Test on herbicidal effects by soil treatment: common lambsquarters; conditions: four weeks after application
Description: as §1

[3] = system: redroot pigweed (Amaranthus viridis); test: Test on herbicidal effects by soil treatment: redroot pigweed; conditions: four weeks after application
Description: as §1

[4] = system: common ragweed (Ambrosia artemisiaefolia); test: Test on herbicidal effects by soil treatment: common ragweed; conditions: four weeks after application
Description: as §1

weeds = test: Test on herbicidal effects by soil treatment: summary over the weeds; conditions: summary in words of Table 2
Description: as §1

Q: How did the “Fresh weight ratio with respect to untreated plants” value (maize; 40 g/ha) turn out when `CCS(=O)(=O)Nc1cc(-n2c(=O)cc(C(F)(F)F)n(C)c2=O)c(F)cc1Cl` [Compound (A1)] was run?
A: 70%

Q: And the “Fresh weight ratio with respect to untreated plants” value (maize; 80 g/ha)?
A: 55%

Q: And the “Fresh weight ratio with respect to untreated weeds, A.th” value (shortened to “Fresh weight ratio … A.th”) ([1]; 5 g/ha)?
A: 26%

Q: And the “Fresh weight ratio … A.th” value ([1]; 10 g/ha)?
A: 2%

Q: What about the “Fresh weight ratio with respect to untreated weeds, C.al” value (“Fresh weight ratio … C.al” for short) ([2]; 5 g/ha) of the same compound?
A: 13%

Q: What about the “Fresh weight ratio … C.al” value ([2]; 10 g/ha) of the same compound?
A: 0%

Q: And the “Fresh weight ratio with respect to untreated weeds, A.vi” value (“Fresh weight ratio … A.vi” below) ([3]; 5 g/ha)?
A: 5%

Q: And the “Fresh weight ratio … A.vi” value ([3]; 10 g/ha)?
A: 0%

Q: And the “Fresh weight ratio with respect to untreated weeds, A.ar” value (shortened to “Fresh weight ratio … A.ar”) ([4]; 5 g/ha)?
A: 31%

Q: And the “Fresh weight ratio … A.ar” value ([4]; 10 g/ha)?
A: 7%

Q: And the “herbicidal activities in the presence of Compound (B), (C), (D) or (E)” value (“herbicidal activities in the presence” for short) (weeds)?
A: not decreased

Q: `Cn1c(C(F)(F)F)cc(=O)n(-c2cc(NS(C)(=O)=O)c(C#N)cc2F)c1=O` [Compound (A2)] was tested. Which “Fresh weight ratio with respect to untreated plants” value (maize; 40 g/ha) did it give?
A: 90%

Q: What about the “Fresh weight ratio with respect to untreated plants” value (maize; 80 g/ha) of the same compound?
A: 76%

Q: And the “Fresh weight ratio … A.th” value ([1]; 5 g/ha)?
A: 32%

Q: And the “Fresh weight ratio … A.th” value ([1]; 10 g/ha)?
A: 4%

Q: What about the “Fresh weight ratio … C.al” value ([2]; 5 g/ha) of the same compound?
A: 18%

Q: What about the “Fresh weight ratio … C.al” value ([2]; 10 g/ha) of the same compound?
A: 0%

Q: What about the “Fresh weight ratio … A.vi” value ([3]; 5 g/ha) of the same compound?
A: 9%

Q: And the “Fresh weight ratio … A.vi” value ([3]; 10 g/ha)?
A: 0%

Q: And the “Fresh weight ratio … A.ar” value ([4]; 5 g/ha)?
A: 40%

Q: What about the “Fresh weight ratio … A.ar” value ([4]; 10 g/ha) of the same compound?
A: 10%

Q: What about the “herbicidal activities in the presence” value (weeds) of the same compound?
A: not decreased

Q: With `CCS(=O)(=O)N(C(=O)C(C)(C)C)c1cc(-n2c(=O)cc(C(F)(F)F)n(C)c2=O)c(F)cc1C#N` [Compound (A3)] as the compound, how does the “Fresh weight ratio with respect to untreated plants” value (maize; 40 g/ha) read?
A: 84%

Q: What about the “Fresh weight ratio with respect to untreated plants” value (maize; 80 g/ha) of the same compound?
A: 60%

Q: And the “Fresh weight ratio … A.th” value ([1]; 5 g/ha)?
A: 24%

Q: What about the “Fresh weight ratio … A.th” value ([1]; 10 g/ha) of the same compound?
A: 1%

Q: What about the “Fresh weight ratio … C.al” value ([2]; 5 g/ha) of the same compound?
A: 15%

Q: And the “Fresh weight ratio … C.al” value ([2]; 10 g/ha)?
A: 0%

Q: And the “Fresh weight ratio … A.vi” value ([3]; 5 g/ha)?
A: 6%

Q: What about the “Fresh weight ratio … A.vi” value ([3]; 10 g/ha) of the same compound?
A: 0%

Q: What about the “Fresh weight ratio … A.ar” value ([4]; 5 g/ha) of the same compound?
A: 37%

Q: And the “Fresh weight ratio … A.ar” value ([4]; 10 g/ha)?
A: 11%

Q: What about the “herbicidal activities in the presence” value (weeds) of the same compound?
A: not decreased

Q: `CCS(=O)(=O)N(C(=O)c1ccc(OC)cc1)c1cc(-n2c(=O)cc(C(F)(F)F)n(C)c2=O)c(F)cc1Cl` [Compound (A4)] was tested. Which “Fresh weight ratio with respect to untreated plants” value (maize; 40 g/ha) did it give?
A: 73%

Q: What about the “Fresh weight ratio with respect to untreated plants” value (maize; 80 g/ha) of the same compound?
A: 57%

Q: And the “Fresh weight ratio … A.th” value ([1]; 5 g/ha)?
A: 27%

Q: What about the “Fresh weight ratio … A.th” value ([1]; 10 g/ha) of the same compound?
A: 5%

Q: And the “Fresh weight ratio … C.al” value ([2]; 5 g/ha)?
A: 17%

Q: And the “Fresh weight ratio … C.al” value ([2]; 10 g/ha)?
A: 0%

Q: What about the “Fresh weight ratio … A.vi” value ([3]; 5 g/ha) of the same compound?
A: 9%

Q: What about the “Fresh weight ratio … A.vi” value ([3]; 10 g/ha) of the same compound?
A: 0%

Q: And the “Fresh weight ratio … A.ar” value ([4]; 5 g/ha)?
A: 40%

Q: What about the “Fresh weight ratio … A.ar” value ([4]; 10 g/ha) of the same compound?
A: 14%

Q: What about the “herbicidal activities in the presence” value (weeds) of the same compound?
A: not decreased

Q: How did the “Fresh weight ratio with respect to untreated plants” value (maize; 40 g/ha) turn out when `CC1(C)OC(c2ccco2)CN1C(=O)C(Cl)Cl` (stereo not shown) [Compound (B)] was run?
A: 100%

Q: And the “Fresh weight ratio with respect to untreated plants” value (maize; 80 g/ha)?
A: 100%

Q: What about the “phytotoxicities to maize sown at a shallow sowing depth caused by Compound (A1), (A2), (A3) or (A4): effect of the safener” value (from here on “phytotoxicities to maize sown”) (maize) of the same compound?
A: remarkably reduced

Q: And the “Fresh weight ratio … A.th” value ([1]; 5 g/ha)?
A: 100%

Q: What about the “Fresh weight ratio … A.th” value ([1]; 10 g/ha) of the same compound?
A: 100%

Q: What about the “Fresh weight ratio … C.al” value ([2]; 5 g/ha) of the same compound?
A: 100%

Q: What about the “Fresh weight ratio … C.al” value ([2]; 10 g/ha) of the same compound?
A: 100%

Q: And the “Fresh weight ratio … A.vi” value ([3]; 5 g/ha)?
A: 100%

Q: What about the “Fresh weight ratio … A.vi” value ([3]; 10 g/ha) of the same compound?
A: 100%

Q: And the “Fresh weight ratio … A.ar” value ([4]; 5 g/ha)?
A: 100%

Q: And the “Fresh weight ratio … A.ar” value ([4]; 10 g/ha)?
A: 100%

Q: `CC1(C)CN2C(=O)CCC2(C)N(C(=O)C(Cl)Cl)C1` (stereo not shown) [Compound (C)] was tested. Which “Fresh weight ratio with respect to untreated plants” value (maize; 40 g/ha) did it give?
A: 100%

Q: What about the “Fresh weight ratio with respect to untreated plants” value (maize; 80 g/ha) of the same compound?
A: 100%

Q: What about the “phytotoxicities to maize sown” value (maize) of the same compound?
A: remarkably reduced

Q: And the “Fresh weight ratio … A.th” value ([1]; 5 g/ha)?
A: 100%

Q: What about the “Fresh weight ratio … A.th” value ([1]; 10 g/ha) of the same compound?
A: 100%

Q: And the “Fresh weight ratio … C.al” value ([2]; 5 g/ha)?
A: 100%

Q: And the “Fresh weight ratio … C.al” value ([2]; 10 g/ha)?
A: 100%

Q: What about the “Fresh weight ratio … A.vi” value ([3]; 5 g/ha) of the same compound?
A: 100%

Q: And the “Fresh weight ratio … A.vi” value ([3]; 10 g/ha)?
A: 100%

Q: What about the “Fresh weight ratio … A.ar” value ([4]; 5 g/ha) of the same compound?
A: 100%

Q: And the “Fresh weight ratio … A.ar” value ([4]; 10 g/ha)?
A: 100%

Q: Which results are given for `O=C(C(Cl)Cl)N1CCOC12CCCCC2` [Compound (D)]?
A: Fresh weight ratio with respect to untreated plants (maize; 40 g/ha): 100%; Fresh weight ratio with respect to untreated plants (maize; 80 g/ha): 100%; phytotoxicities to maize sown at a shallow sowing depth caused by Compound (A1), (A2), (A3) or (A4): effect of the safener (maize): remarkably reduced; Fresh weight ratio with respect to untreated weeds, A.th ([1]; 5 g/ha): 100%; Fresh weight ratio with respect to untreated weeds, A.th ([1]; 10 g/ha): 100%; Fresh weight ratio with respect to untreated weeds, C.al ([2]; 5 g/ha): 100%; Fresh weight ratio with respect to untreated weeds, C.al ([2]; 10 g/ha): 100%; Fresh weight ratio with respect to untreated weeds, A.vi ([3]; 5 g/ha): 100%; Fresh weight ratio with respect to untreated weeds, A.vi ([3]; 10 g/ha): 100%; Fresh weight ratio with respect to untreated weeds, A.ar ([4]; 5 g/ha): 100%; Fresh weight ratio with respect to untreated weeds, A.ar ([4]; 10 g/ha): 100%

Q: With `CC1COc2ccccc2N1C(=O)C(Cl)Cl` (stereo not shown) [Compound (E)] as the compound, how does the “Fresh weight ratio with respect to untreated plants” value (maize; 40 g/ha) read?
A: 100%

Q: What about the “Fresh weight ratio with respect to untreated plants” value (maize; 80 g/ha) of the same compound?
A: 100%

Q: And the “phytotoxicities to maize sown” value (maize)?
A: remarkably reduced

Q: What about the “Fresh weight ratio … A.th” value ([1]; 5 g/ha) of the same compound?
A: 100%

Q: What about the “Fresh weight ratio … A.th” value ([1]; 10 g/ha) of the same compound?
A: 100%

Q: What about the “Fresh weight ratio … C.al” value ([2]; 5 g/ha) of the same compound?
A: 100%

Q: What about the “Fresh weight ratio … C.al” value ([2]; 10 g/ha) of the same compound?
A: 100%

Q: And the “Fresh weight ratio … A.vi” value ([3]; 5 g/ha)?
A: 100%

Q: What about the “Fresh weight ratio … A.vi” value ([3]; 10 g/ha) of the same compound?
A: 100%

Q: And the “Fresh weight ratio … A.ar” value ([4]; 5 g/ha)?
A: 100%

Q: What about the “Fresh weight ratio … A.ar” value ([4]; 10 g/ha) of the same compound?
A: 100%
